Data published in ChEMBL document CHEMBL1201862, “PubChem BioAssay data set” (2004).
The source made the active and inactive calls.

Tests used:
BJ [1] = test: cells; type: functional, cell-based; details: Homo sapiens
[2] = THP-1 cell cytotoxicity, dose response, cytotoxicity control for non-replicating M. tuberculosis project (AID 489025); type: functional
BJ [3] = test: cytotoxicity toward Ras-transformed BJeLR fibroblasts, dose response, cell-based, alamar blue fluorescence, cherrypicked samples (AID 2631); type: functional; details: Homo sapiens;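 also: confirmatory dose-response assay in RAS-dependent BJ fibroblasts engineered with TERT, LT and ST, with cytotoxicity read by fluorescence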
[4] = molecular target: T1, Heat shock factor protein 1 (Mus musculus, UniProt P38532); test: HSF1 potentiators in luciferase reporter cells, confirmation, cell-based, NIH3T3, luminescence, dose retest (AID 435004); type: functional;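 also: stress induced by proteasome inhibitor MG132 added 30 min after compound; luciferase reporter driven by HSF1 response element in NIH3T3 cells; actives raise luminescence as potentiators of the MG132 stress response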
T1 sequence (P38532 whole entry): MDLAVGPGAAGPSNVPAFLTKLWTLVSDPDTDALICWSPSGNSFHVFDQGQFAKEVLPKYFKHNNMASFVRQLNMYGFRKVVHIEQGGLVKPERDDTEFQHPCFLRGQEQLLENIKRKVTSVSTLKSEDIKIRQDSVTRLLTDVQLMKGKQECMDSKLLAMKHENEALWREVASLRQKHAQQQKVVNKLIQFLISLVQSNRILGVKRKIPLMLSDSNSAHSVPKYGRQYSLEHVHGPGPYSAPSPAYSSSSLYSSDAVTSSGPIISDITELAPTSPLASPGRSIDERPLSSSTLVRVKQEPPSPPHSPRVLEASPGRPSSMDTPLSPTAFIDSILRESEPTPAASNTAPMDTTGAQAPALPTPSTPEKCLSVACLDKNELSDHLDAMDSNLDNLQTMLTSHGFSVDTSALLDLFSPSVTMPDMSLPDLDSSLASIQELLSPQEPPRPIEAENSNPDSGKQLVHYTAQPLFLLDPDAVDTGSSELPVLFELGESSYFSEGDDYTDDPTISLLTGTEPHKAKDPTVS

[5] = inhibitors of intracellular T. cruzi replication, confirmation, NIH3T3 host cells, beta-gal luminescence (AID 2044); type: functional, cell-based;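 also: intracellular parasites grown in NIH/3T3 mouse fibroblasts as host cells; luminescent beta-galactosidase reporter signal from transgenic T. cruzi replicating inside host cells; inhibitors lower the luminescence signal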
Hexokinase HKDC1 = molecular target: T2, Hexokinase HKDC1 (Homo sapiens, UniProt Q2TB90); test: HKDC1 hexokinase activators, dose response, biochemical, W721R variant (AID 504730); type: functional
T2 sequence (Q2TB90 whole entry): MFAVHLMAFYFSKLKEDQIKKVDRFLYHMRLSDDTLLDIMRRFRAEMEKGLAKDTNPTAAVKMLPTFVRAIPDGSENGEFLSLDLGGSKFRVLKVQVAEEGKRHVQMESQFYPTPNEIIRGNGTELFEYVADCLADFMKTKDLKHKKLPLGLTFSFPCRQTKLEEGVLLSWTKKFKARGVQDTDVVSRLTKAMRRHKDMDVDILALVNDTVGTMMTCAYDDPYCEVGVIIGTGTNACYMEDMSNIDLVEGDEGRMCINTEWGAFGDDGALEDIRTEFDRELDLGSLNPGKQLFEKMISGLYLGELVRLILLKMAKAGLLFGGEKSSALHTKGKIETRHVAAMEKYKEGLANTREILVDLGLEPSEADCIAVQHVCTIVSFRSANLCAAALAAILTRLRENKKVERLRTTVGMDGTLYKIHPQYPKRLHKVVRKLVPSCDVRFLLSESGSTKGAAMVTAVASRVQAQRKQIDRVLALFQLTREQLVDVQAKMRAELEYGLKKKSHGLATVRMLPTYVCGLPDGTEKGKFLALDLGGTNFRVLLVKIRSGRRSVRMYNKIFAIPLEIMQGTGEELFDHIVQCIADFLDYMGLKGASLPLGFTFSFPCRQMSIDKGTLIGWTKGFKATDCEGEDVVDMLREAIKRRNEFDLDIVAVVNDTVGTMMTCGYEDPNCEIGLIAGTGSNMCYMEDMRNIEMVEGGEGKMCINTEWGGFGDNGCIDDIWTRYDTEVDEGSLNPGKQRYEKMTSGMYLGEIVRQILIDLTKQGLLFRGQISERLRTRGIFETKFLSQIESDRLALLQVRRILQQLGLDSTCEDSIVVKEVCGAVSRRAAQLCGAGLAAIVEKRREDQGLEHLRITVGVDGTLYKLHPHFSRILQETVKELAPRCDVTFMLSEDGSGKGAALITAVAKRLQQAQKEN

[6] = molecular target: Heat shock protein HSP 90-alpha (Homo sapiens, UniProt P07900); type: functional, organism-based
[7] = inhibitors of firefly luciferase expression or activity, dose response, H4 neuroglioma cells, luminescence (AID 1990); type: functional, cell-based
[8] = molecular target: T3, RNA-binding protein pos-1 (Caenorhabditis elegans, UniProt G5EF15); test: inhibitors of POS-1/mex-3 RNA binding, dose response, biochemical, fluorescence polarization (AID 1964);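 also: purified POS-1 fused to maltose binding protein made in E. coli; potency of compounds blocking POS-1 binding to fluorescent RNA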
T3 sequence (G5EF15 whole entry): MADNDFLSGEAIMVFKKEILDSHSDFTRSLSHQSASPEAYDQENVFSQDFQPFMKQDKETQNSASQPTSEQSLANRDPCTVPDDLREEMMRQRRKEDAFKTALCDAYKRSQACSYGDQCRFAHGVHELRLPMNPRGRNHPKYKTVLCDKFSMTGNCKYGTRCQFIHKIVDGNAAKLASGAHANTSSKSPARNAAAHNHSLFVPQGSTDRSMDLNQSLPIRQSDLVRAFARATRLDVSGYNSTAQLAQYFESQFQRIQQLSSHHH

[9] = molecular target: Sphingosine 1-phosphate receptor 2 (Homo sapiens, UniProt O95136); test: Dose Response Cell Based Assay for Antagonists of the S1P2 Receptor. [Related pubchem assays: 856, 736 ]; type: functional
Chain of Sphingosine 1-phosphate receptor 2 (O95136 whole entry): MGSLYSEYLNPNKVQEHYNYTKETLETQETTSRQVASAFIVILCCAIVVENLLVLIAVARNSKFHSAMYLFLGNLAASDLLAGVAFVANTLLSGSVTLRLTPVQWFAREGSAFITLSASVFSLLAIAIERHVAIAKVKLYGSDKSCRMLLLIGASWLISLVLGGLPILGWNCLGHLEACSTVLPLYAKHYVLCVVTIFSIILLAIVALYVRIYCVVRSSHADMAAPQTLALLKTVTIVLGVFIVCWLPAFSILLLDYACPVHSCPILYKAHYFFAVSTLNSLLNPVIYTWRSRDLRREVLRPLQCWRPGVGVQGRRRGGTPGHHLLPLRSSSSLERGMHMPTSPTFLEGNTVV

[10] = molecular target: Mothers against decapentaplegic homolog 3 (Homo sapiens, UniProt P84022); test: SMAD3 transcription factor inhibitors, dose response (AID 715); type: functional
Chain of Mothers against decapentaplegic homolog 3 (P84022 whole entry): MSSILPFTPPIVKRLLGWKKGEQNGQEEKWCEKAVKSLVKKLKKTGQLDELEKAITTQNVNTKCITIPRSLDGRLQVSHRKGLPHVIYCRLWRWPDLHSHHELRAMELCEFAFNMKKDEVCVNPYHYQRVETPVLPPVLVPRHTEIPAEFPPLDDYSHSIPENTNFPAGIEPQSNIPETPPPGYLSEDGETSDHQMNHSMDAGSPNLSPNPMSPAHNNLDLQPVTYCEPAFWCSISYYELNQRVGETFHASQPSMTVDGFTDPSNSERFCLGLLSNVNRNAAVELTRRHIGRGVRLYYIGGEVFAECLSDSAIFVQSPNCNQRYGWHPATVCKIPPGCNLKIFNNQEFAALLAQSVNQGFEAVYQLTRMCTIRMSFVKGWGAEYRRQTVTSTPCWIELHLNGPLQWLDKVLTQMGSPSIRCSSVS

[11] = NIH-3T3 fibroblast cytotoxicity, dose response, cytotoxicity control, cell-based, fluorescence, Alamar Blue, secondary assay (AID 2327); type: functional;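 also: NIH-3T3 mouse fibroblasts cultured with fluconazole at 8 µg/mL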
HEK293 = test: cytotoxicity in HEK293T NF-kB-Luc cells, SAR follow-up, cytotoxicity control for NF-kB activator project, cell-based, resazurin fluorescence (AID 493251); type: functional; details: Homo sapiens
Jurkat = test: SAR Analysis of small molecule inhibitors of T-cell specific antigen receptor-induced NF-kB activation in a Jurkat cell line using a luminescence assay - Set 2. [Related pubchem assays (depositor defined):AID435003, AID435012, AID465]; type: functional, cell-based; details: Homo sapiens
Caspase-8 = Caspase-8 (Homo sapiens, UniProt Q14790); test: caspase-8 inhibition counter-screen, dose response, selectivity assay for caspase-6 inhibitor project, biochemical, Z-IETD-R110 fluorescence, cherry-picked samples (AID 743294)
Chain of Caspase-8 (Q14790 217-374 limits assumed): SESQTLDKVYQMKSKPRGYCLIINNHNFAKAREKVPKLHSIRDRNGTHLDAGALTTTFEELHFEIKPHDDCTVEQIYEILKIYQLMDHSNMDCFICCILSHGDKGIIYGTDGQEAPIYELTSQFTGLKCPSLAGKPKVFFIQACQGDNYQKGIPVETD
Chain of Caspase-8 (Q14790 385-479 limits assumed): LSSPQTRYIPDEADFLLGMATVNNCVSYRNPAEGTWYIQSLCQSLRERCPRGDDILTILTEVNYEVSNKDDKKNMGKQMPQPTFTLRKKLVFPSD

O=C(Cc1ccc([N+](=O)[O-])cc1)N/N=C/c1ccc([N+](=O)[O-])o1
EC50 (BJ [1]): 15.6 µM (active)
CC50 [2]: 6.26 µM (active)
EC50 (BJ [3]): 7.85 µM (active)

CCCCNc1cc(NC(C)=O)cc2cc(OC)c(OC)cc12
EC50 [4]: > 260 µM (inactive)

SC1=Nc2ccccc2C1
EC50 [5]: 0.487 µM (active)
EC50 (Hexokinase HKDC1): 18 µM (active)
AC50 [6]: 3.88 µM (active)

Cn1nc(-c2ccc(Cl)cc2)nc2c(=O)n(C)c(=O)nc1-2
EC50 [7]: 5.59 µM (inconclusive)
EC50 [8]: 17.6 µM (active)
IC50 [9]: 0.996 µM (active)
IC50 [10]: 0.039 µM (active)

COc1ccc(C(NC(=O)C(C)C)c2ccc3cccnc3c2O)cc1 (stereo not given)
EC50 [11]: 40.1 µM (active)
IC50 (HEK293): 41.3 µM (inactive)
IC50 (Jurkat): 2.38 µM (active)

NS(=O)(=O)c1ccc(NC(=O)COC(=O)c2ccc([N+](=O)[O-])s2)cc1
AC50 (Caspase-8): 20.3 µM (active)
